In the NIST ThermoML archive (doi:10.1021/acs.jced.8b00403):

Tests used:
[1] = wn = mass fraction of the nth substance listed; conditions: 101.33 kPa, Liquid, w2 = 0; for viscosity: Concentric cylinders viscometry; for mass density: Vibrating tube method
[2] = refractive index (Na D-line) (dimensionless); wn = mass fraction of the nth substance listed; conditions: 101.33 kPa, Liquid, Standard Abbe refractometry, w2 = 0
[3] = 101.33 kPa, Liquid; for viscosity: Concentric cylinders viscometry; for mass density: Vibrating tube method
[4] = refractive index (Na D-line) (dimensionless); conditions: 101.33 kPa, Liquid, Standard Abbe refractometry

O [water] + OCCCO
Conditions	mass density, [1] [kg/m3]	refractive index, [2]	viscosity, [1] [mPa·s]
273.15 K	1000.8	–	1.825
278.15 K	–	1.3341	–
283.15 K	1000.6	1.3338	1.345
288.15 K	–	1.3335	–
293.15 K	999.3	1.3331	1.041
298.15 K	–	1.3326	–
303.15 K	996.8	1.332	0.8467
308.15 K	–	1.3313	–
313.15 K	993.2	1.3306	0.6997
318.15 K	–	1.3298	–
323.15 K	989	–	0.5967
333.15 K	984.4	–	0.5091
343.15 K	978.6	–	0.4355
353.15 K	972.7	–	0.3911

O [water]
Conditions	mass density, [3] [kg/m3]	refractive index, [4]	viscosity, [3] [mPa·s]
273.15 K	1000.8	–	1.825
278.15 K	–	1.3341	–
283.15 K	1000.6	1.3338	1.345
288.15 K	–	1.3335	–
293.15 K	999.3	1.3331	1.041
298.15 K	–	1.3326	–
303.15 K	996.8	1.332	0.8467
308.15 K	–	1.3313	–
313.15 K	993.2	1.3306	0.6997
318.15 K	–	1.3298	–
323.15 K	989	–	0.5967
333.15 K	984.4	–	0.5091
343.15 K	978.6	–	0.4355
353.15 K	972.7	–	0.3911

CC(O)CO (stereo unspecified) [1,2-propanediol]
Conditions	mass density, [3] [kg/m3]	refractive index, [4]	viscosity, [3] [mPa·s]
253.15 K	1065.8	–	1772.4
258.15 K	1062.2	–	1038.3
263.15 K	1058.6	–	631.08
268.15 K	1054.9	–	396.99
273.15 K	1051.3	–	258
278.15 K	–	1.438	–
283.15 K	1042.9	1.4364	116.68
288.15 K	–	1.4348	–
293.15 K	1035.5	1.4332	59.75
298.15 K	–	1.4315	–
303.15 K	1028.1	1.4299	33.26
308.15 K	–	1.4281	–
313.15 K	1020.6	1.4264	19.92
318.15 K	–	1.4247	–
323.15 K	1013	–	12.68
333.15 K	1005.3	–	8.498
343.15 K	997.7	–	5.95
353.15 K	989.5	–	4.332

O [water] + CC(O)CO
Conditions	mass density, [1] [kg/m3]	refractive index, [2]	viscosity, [1] [mPa·s]
273.15 K	1000.8	–	1.825
278.15 K	–	1.3341	–
283.15 K	1000.6	1.3338	1.345
288.15 K	–	1.3335	–
293.15 K	999.3	1.3331	1.041
298.15 K	–	1.3326	–
303.15 K	996.8	1.332	0.8467
308.15 K	–	1.3313	–
313.15 K	993.2	1.3306	0.6997
318.15 K	–	1.3298	–
323.15 K	989	–	0.5967
333.15 K	984.4	–	0.5091
343.15 K	978.6	–	0.4355
353.15 K	972.7	–	0.3911

OCCCO [propan-1,3-diol]
Conditions	mass density, [3] [kg/m3]	refractive index, [4]	viscosity, [3] [mPa·s]
253.15 K	1078.2	–	574.39
258.15 K	1075.4	–	409.88
263.15 K	1072.3	–	289.5
268.15 K	1069	–	207.88
273.15 K	1065.9	–	152.75
278.15 K	–	1.4436	–
283.15 K	1059.8	1.4423	86.48
288.15 K	–	1.4409	–
293.15 K	1053.6	1.4395	52.01
298.15 K	–	1.4381	–
303.15 K	1047.4	1.4368	32.92
308.15 K	–	1.4354	–
313.15 K	1041.1	1.434	21.79
318.15 K	–	1.4325	–
323.15 K	1034.8	–	15
333.15 K	1028.4	–	10.72
343.15 K	1021.9	–	7.855
353.15 K	1015.3	–	5.916
